Experiments:
Assay type in all cases: in vivo
[1] = test system: crabgrass (Digitaria sanguinalis); test: Test B pre-/postemergence; set-up: key: 0 is no effect; 10 is complete control
Procedure, shortened: (§1)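 Response scores run from 0, meaning no effect, to 10, meaning complete control, assigned by eye relative to controls twelve to sixteen days after spraying. Treatment was both preemergence on planted seed and postemergence on plants at the 1- to 4-leaf stage.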

[2] = test system: wheat (Triticum aestivum); test: Test B pre-/postemergence; set-up: key: 0 is no effect; 10 is complete control
Procedure, shortened: as §1

[3] = test system: pigweed (Amaranthus retroflexus); test: Test B pre-/postemergence; set-up: key: 0 is no effect; 10 is complete control
Procedure, shortened: as §1

[4] = test system: blackgrass (Alopecurus myosuroides); test: Test B pre-/postemergence; set-up: key: 0 is no effect; 10 is complete control
Procedure, shortened: as §1

[5] = test system: velvetleaf (Abutilon theophrasti); test: Test B pre-/postemergence; set-up: key: 0 is no effect; 10 is complete control
Procedure, shortened: as §1

[6] = test system: giant foxtail (Setaria faberii); test: Test B pre-/postemergence; set-up: key: 0 is no effect; 10 is complete control
Procedure, shortened: as §1

[7] = test system: corn (Zea mays); test: Test B pre-/postemergence; set-up: key: 0 is no effect; 10 is complete control
Procedure, shortened: as §1

[8] = test system: bedstraw (Galium aparine); test: Test B pre-/postemergence; set-up: key: 0 is no effect; 10 is complete control
Procedure, shortened: as §1

[9] = test system: broadleaf signalgrass (Brachiaria decumbens); test: Test B pre-/postemergence; set-up: key: 0 is no effect; 10 is complete control
Procedure, shortened: as §1

[10] = test system: soybean (Glycine max); test: Test B pre-/postemergence; set-up: key: 0 is no effect; 10 is complete control
Procedure, shortened: as §1

[11] = test system: cocklebur (Xanthium strumarium); test: Test B pre-/postemergence; set-up: key: 0 is no effect; 10 is complete control
Procedure, shortened: as §1

[12] = test system: purple nutsedge (Cyperus rotundus); test: Test B pre-/postemergence; set-up: key: 0 is no effect; 10 is complete control
Procedure, shortened: as §1

[13] = test system: rape (Brassica napus); test: Test B pre-/postemergence; set-up: key: 0 is no effect; 10 is complete control
Procedure, shortened: as §1

[14] = test system: sugar beet (Beta vulgaris); test: Test B pre-/postemergence; set-up: key: 0 is no effect; 10 is complete control
Procedure, shortened: as §1

[15] = test system: momingglory (Ipomoea hederacea); test: Test B pre-/postemergence; set-up: key: 0 is no effect; 10 is complete control
Procedure, shortened: as §1

[16] = test system: wild oat (Avena fatua); test: Test B pre-/postemergence; set-up: key: 0 is no effect; 10 is complete control
Procedure, shortened: as §1

[17] = test system: rice (Oryza sativa); test: Test B flood test
Procedure, shortened: (§2)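 Each value is a visual injury score relative to controls, with 10 meaning complete control and 0 no effect. Evaluation took place twelve to sixteen days after the 2-leaf-stage plants were treated and kept in the greenhouse.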

[18] = test system: smallflower flatsedge (Cyperus difformis); test: Test B flood test
Procedure, shortened: as §2

[19] = test system: duck salad (Heteranthera limosa); test: Test B flood test
Procedure, shortened: as §2

[20] = test system: bamyardgrass (Echinochloa crus-galli); test: Test B flood test
Procedure, shortened: as §2

[21] = Rate 62 g/ha, Postemergence (flood test)
[22] = Rate 125 g/ha, Postemergence, flood test
[23] = Rate 250 g/ha, Postemergence (flood test species)

Cc1cnc(-c2ccc(F)c(Cl)c2)nc1Cc1cccc(C(F)(F)F)c1 [Compound 25]
1: Plant response rating, Crabgrass ([1]; Rate 250 g/ha, Preemergence) | Wheat plant response rating ([2]; Rate 125 g/ha, Preemergence) | Redroot pigweed plant response rating ([3]; Rate 62 g/ha, Preemergence) | Blackgrass plant response rating ([4]; Rate 62 g/ha, Preemergence) | Giant foxtail plant response rating ([6]; Rate 62 g/ha, Preemergence) | Plant response rating, Corn ([7]; Rate 62 g/ha, Postemergence) | Bedstraw plant response rating ([8]; Rate 62 g/ha, Preemergence) | Bedstraw plant response rating ([8]; Rate 125 g/ha, Preemergence) | B. signalgrass plant response rating ([9]; Rate 62 g/ha, Preemergence) | Plant response rating, Soybean ([10]; Rate 250 g/ha, Preemergence) | Plant response rating, Nutsedge ([12]; Rate 62 g/ha, Postemergence) | Plant response rating, Nutsedge ([12]; Rate 125 g/ha, Postemergence) | Wild oats plant response rating ([16]; Rate 62 g/ha, Preemergence)
0: Crabgrass plant response rating ([1]; Rate 62 g/ha, Preemergence) | Crabgrass plant response rating ([1]; Rate 125 g/ha, Preemergence) | Wheat plant response rating ([2]; Rate 62 g/ha, Preemergence) | Velvetleaf plant response rating ([5]; Rate 62 g/ha, Preemergence) | Velvetleaf plant response rating ([5]; Rate 125 g/ha, Preemergence) | Corn plant response rating ([7]; Rate 62 g/ha, Preemergence) | Corn plant response rating ([7]; Rate 125 g/ha, Preemergence) | Plant response rating, Corn ([7]; Rate 250 g/ha, Preemergence) | Soybean plant response rating ([10]; Rate 62 g/ha, Preemergence) | Soybean plant response rating ([10]; Rate 125 g/ha, Preemergence) | Cocklebur plant response rating ([11]; Rate 62 g/ha, Preemergence) | Cocklebur plant response rating ([11]; Rate 125 g/ha, Preemergence) | Nutsedge plant response rating ([12]; Rate 62 g/ha, Preemergence) | Nutsedge plant response rating ([12]; Rate 125 g/ha, Preemergence) | Plant response rating, Nutsedge ([12]; Rate 250 g/ha, Preemergence)
10: Plant response rating, Crabgrass ([1]; Rate 250 g/ha, Postemergence) | Plant response rating, Redroot pigweed ([3]; Rate 62 g/ha, Postemergence) | Plant response rating, Redroot pigweed ([3]; Rate 125 g/ha, Postemergence) | Plant response rating, Redroot pigweed ([3]; Rate 250 g/ha, Postemergence) | Plant response rating, Bedstraw ([8]; Rate 125 g/ha, Postemergence) | Plant response rating, Bedstraw ([8]; Rate 250 g/ha, Postemergence) | Plant response rating, Rape ([13]; Rate 62 g/ha, Postemergence) | Plant response rating, Rape ([13]; Rate 125 g/ha, Postemergence) | Plant response rating, Rape ([13]; Rate 250 g/ha, Postemergence) | Plant response rating, Rape ([13]; Rate 250 g/ha, Preemergence) | Plant response rating, Sugarbeets ([14]; Rate 62 g/ha, Postemergence) | Plant response rating, Sugarbeets ([14]; Rate 125 g/ha, Postemergence) | Plant response rating, Sugarbeets ([14]; Rate 250 g/ha, Postemergence) | Plant response rating, Morningglory ([15]; Rate 62 g/ha, Postemergence) | Plant response rating, Morningglory ([15]; Rate 125 g/ha, Postemergence) | Plant response rating, Morningglory ([15]; Rate 250 g/ha, Postemergence) | Plant response rating, Morningglory ([15]; Rate 250 g/ha, Preemergence)
7: Plant response rating, Crabgrass ([1]; Rate 62 g/ha, Postemergence) | Plant response rating, Crabgrass ([1]; Rate 125 g/ha, Postemergence) | Plant response rating, Soybean ([10]; Rate 125 g/ha, Postemergence) | Plant response rating, Soybean ([10]; Rate 250 g/ha, Postemergence) | Rape plant response rating ([13]; Rate 125 g/ha, Preemergence) | Plant response rating, S. Flatsedge [18, 23]
5: Blackgrass plant response rating ([4]; Rate 125 g/ha, Preemergence) | Plant response rating, Wild oats ([16]; Rate 250 g/ha, Preemergence) | Plant response rating, Rice [17, 23] | Plant response rating, S. Flatsedge [18, 22] | Plant response rating, Barnyardgrass [20, 23]
4: Plant response rating, Wheat ([2]; Rate 125 g/ha, Postemergence) | Plant response rating, Wheat ([2]; Rate 250 g/ha, Postemergence) | Plant response rating, Blackgrass ([4]; Rate 125 g/ha, Postemergence) | Giant foxtail plant response rating ([6]; Rate 125 g/ha, Preemergence) | Plant response rating, Soybean ([10]; Rate 62 g/ha, Postemergence) | Plant response rating, Wild oats ([16]; Rate 250 g/ha, Postemergence) | Plant response rating, Rice [17, 22] | Plant response rating, Ducksalad [19, 22] | Plant response rating, Barnyardgrass [20, 22]
8: Plant response rating, Blackgrass ([4]; Rate 250 g/ha, Postemergence) | Plant response rating, Blackgrass ([4]; Rate 250 g/ha, Preemergence) | Plant response rating, Velvetleaf ([5]; Rate 62 g/ha, Postemergence) | Plant response rating, Giant foxtail ([6]; Rate 250 g/ha, Postemergence) | Plant response rating, Cocklebur ([11]; Rate 250 g/ha, Preemergence) | Sugarbeets plant response rating ([14]; Rate 125 g/ha, Preemergence)
9: Plant response rating, Redroot pigweed ([3]; Rate 250 g/ha, Preemergence) | Plant response rating, Velvetleaf ([5]; Rate 125 g/ha, Postemergence) | Plant response rating, Velvetleaf ([5]; Rate 250 g/ha, Postemergence) | Plant response rating, Giant foxtail ([6]; Rate 250 g/ha, Preemergence) | Plant response rating, Bedstraw ([8]; Rate 62 g/ha, Postemergence) | Plant response rating, Cocklebur ([11]; Rate 62 g/ha, Postemergence) | Plant response rating, Cocklebur ([11]; Rate 125 g/ha, Postemergence) | Plant response rating, Cocklebur ([11]; Rate 250 g/ha, Postemergence) | Plant response rating, Sugarbeets ([14]; Rate 250 g/ha, Preemergence)
6: Plant response rating, Giant foxtail ([6]; Rate 125 g/ha, Postemergence) | Plant response rating, B. signalgrass ([9]; Rate 250 g/ha, Preemergence) | Sugarbeets plant response rating ([14]; Rate 62 g/ha, Preemergence) | Plant response rating, Ducksalad [19, 23]
3: Redroot pigweed plant response rating ([3]; Rate 125 g/ha, Preemergence) | Plant response rating, Blackgrass ([4]; Rate 62 g/ha, Postemergence) | Plant response rating, Giant foxtail ([6]; Rate 62 g/ha, Postemergence) | Plant response rating, Corn ([7]; Rate 250 g/ha, Postemergence) | Plant response rating, B. signalgrass ([9]; Rate 125 g/ha, Postemergence) | Plant response rating, B. signalgrass ([9]; Rate 250 g/ha, Postemergence) | Morningglory plant response rating ([15]; Rate 62 g/ha, Preemergence) | Morningglory plant response rating ([15]; Rate 125 g/ha, Preemergence) | Plant response rating, Wild oats ([16]; Rate 62 g/ha, Postemergence) | Plant response rating, Wild oats ([16]; Rate 125 g/ha, Postemergence) | Wild oats plant response rating ([16]; Rate 125 g/ha, Preemergence) | Plant response rating, Rice [17, 21] | Plant response rating, S. Flatsedge [18, 21] | Plant response rating, Ducksalad [19, 21] | Plant response rating, Barnyardgrass [20, 21]
2: Plant response rating, Wheat ([2]; Rate 62 g/ha, Postemergence) | Plant response rating, Wheat ([2]; Rate 250 g/ha, Preemergence) | Plant response rating, Velvetleaf ([5]; Rate 250 g/ha, Preemergence) | Plant response rating, Corn ([7]; Rate 125 g/ha, Postemergence) | Plant response rating, Bedstraw ([8]; Rate 250 g/ha, Preemergence) | Plant response rating, B. signalgrass ([9]; Rate 62 g/ha, Postemergence) | B. signalgrass plant response rating ([9]; Rate 125 g/ha, Preemergence) | Plant response rating, Nutsedge ([12]; Rate 250 g/ha, Postemergence) | Rape plant response rating ([13]; Rate 62 g/ha, Preemergence)

Reference: patent publication US6525001B1, “Substituted pyrimidine and pyridine herbicides” (Mid-American Commercialization Corporation, priority 1997, dated 2003)
